This note sets out measurements from the NIST ThermoML archive (doi:10.1016/j.jct.2005.04.009).

Structures are written as SMILES. ± gives the expanded uncertainty stated by the source.

The conditions of data set [1]: 101.33 kPa, Liquid, Alternating current cell with electrodes.
Data set [2] is described as follows: wn = mass fraction of the nth substance listed. The note with it: 100 kPa, Liquid, Alternating current cell with electrodes.

For the compound `CCCCCC[n+]1ccn(C)c1.O=S(=O)([N-]S(=O)(=O)C(F)(F)F)C(F)(F)F`, the electrical conductivity was 0.135 ± 0.02 S/m in data set [1] (288.15 K); 0.173 ± 0.02 S/m in data set [1] (293.15 K); 0.218 ± 0.02 S/m in data set [1] (298.15 K); 0.327 ± 0.02 S/m in data set [1] (308.15 K); 0.546 ± 0.02 S/m in data set [1] (323.15 K).

With `CCCC[n+]1ccn(C)c1.O=S(=O)([N-]S(=O)(=O)C(F)(F)F)C(F)(F)F`, the electrical conductivity was found to be 0.265 ± 0.02 S/m in data set [1] (288.15 K); 0.331 ± 0.02 S/m in data set [1] (293.15 K); 0.406 ± 0.02 S/m in data set [1] (298.15 K); 0.585 ± 0.02 S/m in data set [1] (308.15 K); 0.924 ± 0.02 S/m in data set [1] (323.15 K).

As to `CCn1cc[n+](C)c1.O=S(=O)([N-]S(=O)(=O)C(F)(F)F)C(F)(F)F`, the electrical conductivity in data set [1] (288.15 K) was 0.644 ± 0.02 S/m; in data set [1] (293.15 K), 0.773 ± 0.02 S/m; in data set [1] (298.15 K), 0.912 ± 0.02 S/m; in data set [1] (308.15 K), 1.23 ± 0.02 S/m; in data set [1] (323.15 K) it was 1.79 ± 0.02 S/m.

`CCCC[n+]1ccn(C)c1.O=S(=O)([N-]S(=O)(=O)C(F)(F)F)C(F)(F)F` + O: the electrical conductivity in data set [2] (288.15 K, w2 = 1e-05) is 0.265 ± 0.02 S/m; in data set [2] (288.15 K, w2 = 8e-05) it was 0.266 ± 0.02 S/m; in data set [2] (288.15 K, w2 = 0.00102) it was 0.277 ± 0.02 S/m; in data set [2] (288.15 K, w2 = 0.00885) it was 0.365 ± 0.021 S/m; in data set [2] (293.15 K, w2 = 1e-05) it was 0.331 ± 0.02 S/m; in data set [2] (293.15 K, w2 = 8e-05), 0.332 ± 0.02 S/m. In addition, the electrical conductivity in data set [2] (293.15 K, w2 = 0.00102) is 0.345 ± 0.02 S/m; in data set [2] (293.15 K, w2 = 0.00885) it was 0.449 ± 0.021 S/m; in data set [2] (298.15 K, w2 = 1e-05), 0.406 ± 0.02 S/m; in data set [2] (298.15 K, w2 = 8e-05), 0.408 ± 0.02 S/m; in data set [2] (298.15 K, w2 = 0.00102), 0.422 ± 0.02 S/m; in data set [2] (298.15 K, w2 = 0.00885), 0.542 ± 0.022 S/m.

`CCCCn1cc[n+](C)c1.F[P-](F)(F)(F)(F)F` [1-butyl-3-methylimidazolium hexafluorophosphate]: the electrical conductivity in data set [1] (288.15 K) was 0.079 ± 0.02 S/m; in data set [1] (293.15 K), 0.109 ± 0.02 S/m; in data set [1] (298.15 K), 0.146 ± 0.02 S/m; in data set [1] (308.15 K), 0.247 ± 0.02 S/m; in data set [1] (323.15 K), 0.477 ± 0.02 S/m.
